Source: the supplement of paper PMC10307832

Experiments:
Test in all cases: relative viability (nuclei count vs DMSO), 5 days (fraction); higher = more cells survive
PC-14 = test system: PC-14
Outline: (§1)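 The day after seeding in 1536-well plates, lung cancer cell lines were treated by pin tool with a single drug, or with a fixed anchor-drug dose together with five library-drug doses (not always all listed) in √10 steps. After 5 days, a combined fix-and-stain solution (final 0.05% Triton X-100, 1% formaldehyde, 1 ug/ml Hoechst) was added. Nuclei counted on 4× images gave relative viability as treated counts over vehicle counts, reported as the median of duplicate plates.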

LK-2 = test system: LK-2
Outline: as §1

NCI-H647 = test system: NCI-H647
Outline: as §1

NCI-H460 = test system: NCI-H460
Outline: as §1

NCI-H1975 = test system: NCI-H1975
Outline: as §1

NCI-H1355 = test system: NCI-H1355
Outline: as §1

NCI-H838 = test system: NCI-H838
Outline: as §1

NCI-H322M = test system: NCI-H322M
Outline: as §1

NCI-H1915 = test system: NCI-H1915
Outline: as §1

EMC-BAC-2 = test system: EMC-BAC-2
Outline: as §1

NCI-H2126 = test system: NCI-H2126
Outline: as §1

NCI-H1437 = test system: NCI-H1437
Outline: as §1

NCI-H1755 = test system: NCI-H1755
Outline: as §1

NCI-H1666 = test system: NCI-H1666
Outline: as §1

NCI-H2085 = test system: NCI-H2085
Outline: as §1

NCI-H3122 = test system: NCI-H3122
Outline: as §1

NCI-H1944 = test system: NCI-H1944
Outline: as §1

RERF-LC-KJ = test system: RERF-LC-KJ
Outline: as §1

SK-LU-1 = test system: SK-LU-1
Outline: as §1

C=C1C(=O)O[C@@H](CCCCCCCC)[C@@H]1C(=O)O [C-75] + CC1(C)CCC(c2ccc(Cl)cc2)=C(CN2CCN(c3ccc(C(=O)NS(=O)(=O)c4ccc(N[C@H](CCN5CCOCC5)CSc5ccccc5)c(S(=O)(=O)C(F)(F)F)c4)cc3)CC2)C1 [Navitoclax] (partner 0.5 µM)
relative viability (PC-14; first compound 0.08 µM): 1.01 | relative viability (PC-14; first compound 0.253 µM): 1 | relative viability (PC-14; first compound 0.8 µM): 0.977 | relative viability (PC-14; first compound 2.53 µM): 0.911 | relative viability (PC-14; first compound 8 µM): 0.978 | relative viability (LK-2; first compound 0.08 µM): 0.819 | relative viability (LK-2; first compound 0.253 µM): 0.883 | relative viability (LK-2; first compound 0.8 µM): 1.02 | relative viability (LK-2; first compound 2.53 µM): 0.769 | relative viability (LK-2; first compound 8 µM): 0.648 | relative viability (NCI-H647; first compound 0.08 µM): 1.12 | relative viability (NCI-H647; first compound 0.253 µM): 1.05 | relative viability (NCI-H647; first compound 2.53 µM): 0.875 | relative viability (NCI-H647; first compound 8 µM): 0.857 | relative viability (NCI-H460; first compound 0.08 µM): 1.14 | relative viability (NCI-H460; first compound 0.253 µM): 1.23 | relative viability (NCI-H460; first compound 0.8 µM): 1.04 | relative viability (NCI-H460; first compound 8 µM): 1.08 | relative viability (NCI-H1975; first compound 0.08 µM): 0.983 | relative viability (NCI-H1975; first compound 0.253 µM): 1.1 | relative viability (NCI-H1975; first compound 0.8 µM): 1.12 | relative viability (NCI-H1975; first compound 2.53 µM): 1.1 | relative viability (NCI-H1975; first compound 8 µM): 1.14 | relative viability (NCI-H1355; first compound 0.08 µM): 0.951 | relative viability (NCI-H1355; first compound 0.253 µM): 0.894 | relative viability (NCI-H1355; first compound 0.8 µM): 0.867 | relative viability (NCI-H1355; first compound 2.53 µM): 0.952 | relative viability (NCI-H1355; first compound 8 µM): 0.956 | relative viability (NCI-H838; first compound 0.08 µM): 1.12 | relative viability (NCI-H838; first compound 0.253 µM): 0.916 | relative viability (NCI-H838; first compound 0.8 µM): 1.14 | relative viability (NCI-H838; first compound 2.53 µM): 1.03 | relative viability (NCI-H838; first compound 8 µM): 0.954 | relative viability (NCI-H322M; first compound 0.08 µM): 1.18 | relative viability (NCI-H322M; first compound 0.253 µM): 1.54 | relative viability (NCI-H322M; first compound 0.8 µM): 1.28 | relative viability (NCI-H322M; first compound 2.53 µM): 1.12 | relative viability (NCI-H322M; first compound 8 µM): 1.29 | relative viability (NCI-H1915; first compound 0.08 µM): 0.818 | relative viability (NCI-H1915; first compound 0.253 µM): 0.785 | relative viability (NCI-H1915; first compound 0.8 µM): 0.774 | relative viability (NCI-H1915; first compound 2.53 µM): 0.386 | relative viability (NCI-H1915; first compound 8 µM): 0.781 | relative viability (EMC-BAC-2; first compound 0.08 µM): 1.13 | relative viability (EMC-BAC-2; first compound 0.253 µM): 1.18 | relative viability (EMC-BAC-2; first compound 0.8 µM): 1.15 | relative viability (EMC-BAC-2; first compound 2.53 µM): 1.07 | relative viability (EMC-BAC-2; first compound 8 µM): 1.18 | relative viability (NCI-H2126; first compound 0.08 µM): 0.869 | relative viability (NCI-H2126; first compound 0.253 µM): 0.902 | relative viability (NCI-H2126; first compound 0.8 µM): 0.871 | relative viability (NCI-H2126; first compound 2.53 µM): 0.718 | relative viability (NCI-H2126; first compound 8 µM): 0.818 | relative viability (NCI-H1437; first compound 0.08 µM): 1.06 | relative viability (NCI-H1437; first compound 0.253 µM): 1.13 | relative viability (NCI-H1437; first compound 0.8 µM): 1.09 | relative viability (NCI-H1437; first compound 2.53 µM): 1.09 | relative viability (NCI-H1437; first compound 8 µM): 1.08 | relative viability (NCI-H1755; first compound 0.08 µM): 0.945 | relative viability (NCI-H1755; first compound 0.253 µM): 0.935 | relative viability (NCI-H1755; first compound 0.8 µM): 1.02 | relative viability (NCI-H1755; first compound 2.53 µM): 0.711 | relative viability (NCI-H1755; first compound 8 µM): 0.957 | relative viability (NCI-H1666; first compound 0.08 µM): 0.94 | relative viability (NCI-H1666; first compound 0.253 µM): 1.19 | relative viability (NCI-H1666; first compound 0.8 µM): 0.742 | relative viability (NCI-H1666; first compound 2.53 µM): 0.891 | relative viability (NCI-H1666; first compound 8 µM): 0.567 | relative viability (NCI-H2085; first compound 0.08 µM): 1.15 | relative viability (NCI-H2085; first compound 0.253 µM): 1.2 | relative viability (NCI-H2085; first compound 0.8 µM): 1.07 | relative viability (NCI-H2085; first compound 2.53 µM): 1.11 | relative viability (NCI-H2085; first compound 8 µM): 1.08 | relative viability (NCI-H3122; first compound 0.08 µM): 0.973 | relative viability (NCI-H3122; first compound 0.253 µM): 1.05 | relative viability (NCI-H3122; first compound 0.8 µM): 0.986 | relative viability (NCI-H3122; first compound 8 µM): 1.09 | relative viability (NCI-H1944; first compound 0.08 µM): 1.03 | relative viability (NCI-H1944; first compound 0.253 µM): 0.896 | relative viability (NCI-H1944; first compound 0.8 µM): 1.01 | relative viability (NCI-H1944; first compound 8 µM): 0.998 | relative viability (RERF-LC-KJ; first compound 0.08 µM): 0.91 | relative viability (RERF-LC-KJ; first compound 0.253 µM): 1.47 | relative viability (RERF-LC-KJ; first compound 0.8 µM): 0.881 | relative viability (RERF-LC-KJ; first compound 2.53 µM): 0.843 | relative viability (RERF-LC-KJ; first compound 8 µM): 0.802 | relative viability (SK-LU-1; first compound 0.08 µM): 0.932 | relative viability (SK-LU-1; first compound 0.253 µM): 0.85 | relative viability (SK-LU-1; first compound 0.8 µM): 0.763 | relative viability (SK-LU-1; first compound 2.53 µM): 0.709 | relative viability (SK-LU-1; first compound 8 µM): 0.751
